Source: US20250121024A1, “COMBINED USE OF IMIQUIMOD AND A CASEIN HYDROLYSATE FOR THE TREATMENT OF CONDYLOMA” (NTD LABS, S.L.U., priority 2021, published 2025)

Test system: condyloma
Test: Controlled, observational clinical trials of topical 5% imiquimod, oral casein hydrolysate and their combination in patients suffering from condyloma
Assay type: in vivo, human
Conditions: for Total resolution rate of condyloma (%): percentage of patients with total resolution
Procedure: The efficacy of the combination of imiquimod and a casein hydrolysate, according to the characteristics defined in the present invention, for the treatment of patients with condyloma was evaluated. Specifically, it was evaluated whether oral supplementation with the casein hydrolysate in patients treated with topical 5% imiquimod produced an improvement in treatment efficacy (rate of complete resolution of condyloma) and/or reduced recurrences (rate of recurrences) after the treatment.
A controlled, observational clinical trial was carried out, which included 44 female patients suffering from condyloma, who were divided into two groups: • Imiquimod group (I) (24 patients): treated with 5% imiquimod cream (3 times per week for up to 16 weeks). • Imiquimod+casein hydrolysate group (I+C) (20 patients): treated with 5% imiquimod cream (3 times per week for up to 16 weeks) plus oral casein hydrolysate (6 g once per day, for 6 months).
Likewise, a controlled, observational clinical trial was carried out with 20 patients suffering from condyloma (Group casein hydrolysate (C)) who were treated only with oral casein hydrolysate for 6 months (6 grams, once per day).
A commercially available casein hydrolysate (HuPaVir®) and a commercially available 5% imiquimod cream (Aldara® 5% cream) were used in the study.
In particular, the evaluation of patients at 4, 8, 12 and 16 weeks after starting treatment is included, as well as after 6 months (for group C some points are not available), wherein the percentage of patients with total resolution of condyloma during treatment (up to 16 weeks) and the recurrence rate 6 months after starting the treatment is reported.

SMILES: CC(C)Cn1cnc2c(N)nc3ccccc3c21 [I, 1-(2-methylpropyl)-1H-imidazo[4,5-c]quinoline-4-amine]
- Total resolution rate of condyloma (%) (4 weeks after starting treatment): 8.33%
- Recurrence rate (%) (6 months after starting the treatment): 14.3%
- Total resolution rate of condyloma (%) (8 weeks after starting treatment): 28.57%
- Total resolution rate of condyloma (%) (12 weeks after starting treatment): 58.33%
- Total resolution rate of condyloma (%) (12 weeks after starting treatment, listed as imiquimod): 58%
- Total resolution rate of condyloma (%) (16 weeks after starting treatment): 72.72%
